Tests used:
[1] = target: T1, Muscarinic acetylcholine receptor M2 (Homo sapiens, UniProt P08172); test: Displacement of [3H]NMS from human muscarinic M2 receptor expressed in CHO cell membranes after 2 hrs by liquid scintillation counting method
T1 sequence (P08172 whole entry): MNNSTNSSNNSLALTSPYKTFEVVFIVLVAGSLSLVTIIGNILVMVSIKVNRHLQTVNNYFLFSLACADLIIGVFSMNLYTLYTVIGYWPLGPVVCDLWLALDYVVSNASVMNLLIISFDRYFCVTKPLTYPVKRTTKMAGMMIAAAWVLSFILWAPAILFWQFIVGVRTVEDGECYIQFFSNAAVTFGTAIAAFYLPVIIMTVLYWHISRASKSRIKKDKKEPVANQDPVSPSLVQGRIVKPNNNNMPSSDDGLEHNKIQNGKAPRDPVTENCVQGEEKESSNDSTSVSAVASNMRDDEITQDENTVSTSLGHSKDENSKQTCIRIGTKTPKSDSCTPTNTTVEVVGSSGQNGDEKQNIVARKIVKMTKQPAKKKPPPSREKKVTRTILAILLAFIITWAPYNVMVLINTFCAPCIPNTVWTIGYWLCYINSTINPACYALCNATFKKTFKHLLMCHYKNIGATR

[2] = target: T2, Muscarinic acetylcholine receptor M5 (Homo sapiens, UniProt P08912); test: Displacement of [3H]NMS from human muscarinic M5 receptor expressed in CHO cell membranes after 2 hrs by liquid scintillation counting method
T2 sequence (P08912 whole entry): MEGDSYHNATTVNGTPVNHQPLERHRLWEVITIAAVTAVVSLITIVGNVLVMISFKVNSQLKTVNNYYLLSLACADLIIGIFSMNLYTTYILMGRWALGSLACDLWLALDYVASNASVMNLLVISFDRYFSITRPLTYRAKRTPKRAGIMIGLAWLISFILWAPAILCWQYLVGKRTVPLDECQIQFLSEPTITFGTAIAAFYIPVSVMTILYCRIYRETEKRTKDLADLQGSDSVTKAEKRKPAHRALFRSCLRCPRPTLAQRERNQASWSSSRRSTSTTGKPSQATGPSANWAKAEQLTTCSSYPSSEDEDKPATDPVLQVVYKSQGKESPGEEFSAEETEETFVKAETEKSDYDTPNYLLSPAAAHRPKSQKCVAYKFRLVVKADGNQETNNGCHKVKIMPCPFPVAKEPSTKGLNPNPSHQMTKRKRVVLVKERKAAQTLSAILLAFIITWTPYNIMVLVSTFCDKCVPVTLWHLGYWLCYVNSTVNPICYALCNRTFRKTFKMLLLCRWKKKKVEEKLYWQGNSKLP

[3] = target: T3, Alpha-1B adrenergic receptor (Homo sapiens, UniProt P35368); test: Displacement of [3H]prazosin from human recombinant alpha-1B adrenergic receptor expressed in CHO cell membranes after 30 mins by liquid scintillation counting method
T3 sequence (P35368 whole entry): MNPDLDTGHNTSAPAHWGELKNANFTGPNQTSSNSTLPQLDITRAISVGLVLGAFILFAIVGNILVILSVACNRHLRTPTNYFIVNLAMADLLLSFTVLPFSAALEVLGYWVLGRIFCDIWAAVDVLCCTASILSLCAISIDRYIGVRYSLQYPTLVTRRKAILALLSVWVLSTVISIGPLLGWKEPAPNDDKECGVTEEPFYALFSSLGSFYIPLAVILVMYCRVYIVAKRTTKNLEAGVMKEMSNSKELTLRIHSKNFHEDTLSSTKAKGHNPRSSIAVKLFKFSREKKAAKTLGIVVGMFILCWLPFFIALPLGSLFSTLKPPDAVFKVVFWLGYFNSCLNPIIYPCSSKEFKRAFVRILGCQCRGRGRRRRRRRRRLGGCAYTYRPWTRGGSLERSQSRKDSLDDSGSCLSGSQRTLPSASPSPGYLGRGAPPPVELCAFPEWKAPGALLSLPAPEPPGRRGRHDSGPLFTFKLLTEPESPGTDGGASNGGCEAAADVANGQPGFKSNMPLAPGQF

[4] = target: Beta-1 adrenergic receptor (Homo sapiens, UniProt P08588); test: Displacement of [3H]CGP12177 from human recombinant beta1 adrenergic receptor expressed in HEK293 cell membranes after 90 mins by beta counting method
[5] = target: Sigma non-opioid intracellular receptor 1 (Cavia porcellus, UniProt Q60492); test: Displacement of [3H](+)-pentazocine from sigma1 receptor in Hartley guinea pig brain cortex after 120 mins by scintillation counting method
[6] = target: Sodium-dependent dopamine transporter (Rattus norvegicus, UniProt P23977); test: Displacement of [3H]WIN 35,428 from DAT in Sprague-Dawley rat striatum after 120 mins by scintillation counting method
[7] = target: T4, Muscarinic acetylcholine receptor M1 (Homo sapiens, UniProt P11229); test: Agonist activity at human SP/Myc epitope-tagged muscarinic M1 receptor expressed in HEK293T cells assessed as RLuc8-fused Galphaq activation after 2 mins by BRET assay; format: cell-based, HEK-293T
T4 sequence (P11229 whole entry): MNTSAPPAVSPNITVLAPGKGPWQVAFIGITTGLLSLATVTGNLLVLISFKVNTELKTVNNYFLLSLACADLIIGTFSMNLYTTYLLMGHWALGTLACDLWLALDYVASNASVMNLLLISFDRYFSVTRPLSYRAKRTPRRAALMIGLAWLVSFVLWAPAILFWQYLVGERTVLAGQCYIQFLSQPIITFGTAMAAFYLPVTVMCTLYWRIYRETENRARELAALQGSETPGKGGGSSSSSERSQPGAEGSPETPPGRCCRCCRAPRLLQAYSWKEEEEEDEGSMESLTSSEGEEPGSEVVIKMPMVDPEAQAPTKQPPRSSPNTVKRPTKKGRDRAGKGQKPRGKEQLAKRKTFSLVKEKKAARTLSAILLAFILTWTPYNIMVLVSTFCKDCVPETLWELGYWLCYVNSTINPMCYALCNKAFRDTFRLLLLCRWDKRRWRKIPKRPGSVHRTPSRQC

[8] = target: T5, Muscarinic acetylcholine receptor M4 (Homo sapiens, UniProt P08173); test: Agonist activity at human SP/Myc epitope-tagged muscarinic M4 receptor expressed in HEK293T cells assessed as RLuc8-fused Galphaq activation after 2 mins by BRET assay; format: cell-based, HEK-293T
T5 sequence (P08173 whole entry): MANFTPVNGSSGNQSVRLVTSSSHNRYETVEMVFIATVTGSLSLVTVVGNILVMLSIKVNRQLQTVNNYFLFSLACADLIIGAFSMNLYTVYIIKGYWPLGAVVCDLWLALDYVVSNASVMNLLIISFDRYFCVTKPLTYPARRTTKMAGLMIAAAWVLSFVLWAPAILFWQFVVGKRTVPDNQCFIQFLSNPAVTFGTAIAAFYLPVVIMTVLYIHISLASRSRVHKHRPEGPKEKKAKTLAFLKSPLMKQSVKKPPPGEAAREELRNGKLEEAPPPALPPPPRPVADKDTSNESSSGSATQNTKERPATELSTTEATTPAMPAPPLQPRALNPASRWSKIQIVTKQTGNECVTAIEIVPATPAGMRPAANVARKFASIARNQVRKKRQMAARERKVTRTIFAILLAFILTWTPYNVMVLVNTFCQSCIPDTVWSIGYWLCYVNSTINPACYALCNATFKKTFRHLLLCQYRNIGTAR

Chain of Sodium-dependent dopamine transporter (P23977 whole entry, the tested form may be a part): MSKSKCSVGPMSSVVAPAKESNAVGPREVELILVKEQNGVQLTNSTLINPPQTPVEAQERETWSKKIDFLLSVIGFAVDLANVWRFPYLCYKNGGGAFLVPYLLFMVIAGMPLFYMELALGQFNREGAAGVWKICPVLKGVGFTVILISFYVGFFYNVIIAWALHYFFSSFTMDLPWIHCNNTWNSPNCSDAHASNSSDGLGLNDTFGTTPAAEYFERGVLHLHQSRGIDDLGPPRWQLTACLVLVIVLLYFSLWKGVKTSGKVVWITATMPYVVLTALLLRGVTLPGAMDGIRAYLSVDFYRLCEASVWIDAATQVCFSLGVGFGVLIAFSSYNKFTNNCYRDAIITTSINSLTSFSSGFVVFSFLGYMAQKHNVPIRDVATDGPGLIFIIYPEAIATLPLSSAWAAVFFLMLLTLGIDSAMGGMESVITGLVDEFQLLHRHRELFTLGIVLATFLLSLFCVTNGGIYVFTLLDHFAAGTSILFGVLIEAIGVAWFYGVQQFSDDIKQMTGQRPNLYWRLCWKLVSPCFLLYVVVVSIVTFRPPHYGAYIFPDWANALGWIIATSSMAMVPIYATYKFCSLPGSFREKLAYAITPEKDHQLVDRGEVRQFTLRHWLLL
Chain of Beta-1 adrenergic receptor (P08588 whole entry): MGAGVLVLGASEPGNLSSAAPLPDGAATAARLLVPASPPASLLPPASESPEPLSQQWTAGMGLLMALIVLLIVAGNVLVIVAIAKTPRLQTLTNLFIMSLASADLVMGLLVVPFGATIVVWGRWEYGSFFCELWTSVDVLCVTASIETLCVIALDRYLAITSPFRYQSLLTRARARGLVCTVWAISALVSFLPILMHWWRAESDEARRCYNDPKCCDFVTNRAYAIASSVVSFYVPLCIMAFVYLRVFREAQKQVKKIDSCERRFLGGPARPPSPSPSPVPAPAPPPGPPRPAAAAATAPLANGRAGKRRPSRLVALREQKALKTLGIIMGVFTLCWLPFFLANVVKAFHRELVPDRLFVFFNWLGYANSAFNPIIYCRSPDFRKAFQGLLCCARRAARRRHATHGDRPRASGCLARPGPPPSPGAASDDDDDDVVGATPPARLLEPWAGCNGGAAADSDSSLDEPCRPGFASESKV
Chain of Sigma non-opioid intracellular receptor 1 (Q60492 whole entry): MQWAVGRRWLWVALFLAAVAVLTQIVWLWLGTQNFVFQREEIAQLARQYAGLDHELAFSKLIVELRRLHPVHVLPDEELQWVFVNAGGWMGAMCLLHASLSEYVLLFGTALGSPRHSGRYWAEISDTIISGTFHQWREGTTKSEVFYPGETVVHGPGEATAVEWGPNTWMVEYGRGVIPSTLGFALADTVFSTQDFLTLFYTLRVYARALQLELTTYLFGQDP

With `O=C1CCc2ccccc2N1CCCN1CCC(Cc2ccccc2)CC1` the Ki [1] was 794 nM, the Ki [2] was 3720 nM and the Ki [3] was 224 nM. It also gave a Ki [4] of 10200 nM, a Ki [5] of 10 nM and a Ki [6] of 447 nM. For the same compound, the EC50 [7] was 186 nM and the EC50 [8] was 148 nM.

Work on `O=C1CCc2ccccc2N1CCCN1CCN(c2ccccc2)CC1` yielded a Ki [1] of 16600 nM, a Ki [2] of 27500 nM and a Ki [3] of 74.1 nM. For the same compound, the Ki [4] was 32400 nM, the Ki [5] was 269 nM and the Ki [6] was 8710 nM. The EC50 [7] was 646 nM and the EC50 [8] was 589 nM.

Reference: ChEMBL document CHEMBL4043296 (J Med Chem, 2018)
